According to paper PMC12736255, “Reinvestigating Pyrrol-2-One-Based Compounds: From Antimicrobial Agents to Promising Antitumor Candidates” (Pharmaceuticals, 2025):

Assays:
Assay in all cases: NCI-60 single-dose screen
Assay type in all cases: cell-based
OVCAR-4 = conditions: Homo sapiens; OVCAR-4, 10^–5 M; read-out: GI (%)
Source text: (§1) In the next step, all synthesized compounds were electronically submitted and accepted for testing to the National Cancer Institute (NCI) platform, for the single dose (10^−5 M) screening against a panel of 60 human tumor cell lines, representing leukemia, melanoma, and cancers of the lung, colon, central nervous system, ovary, kidney, prostate, and breast. The results are summarized in Table 2, with the best values highlighted in red (Figures S1–S14).

SK-MEL-2 = conditions: Homo sapiens; SK-MEL-2, 10^–5 M; read-out: GI (%)
Source text: as §1

NCI-H460 = conditions: Homo sapiens; NCI-H460, 10^–5 M; read-out: GI (%)
Source text: as §1

T-47D = conditions: Homo sapiens, T47D, 10^–5 M, read-out: GI (%)
Source text: as §1

NCI-H23 = conditions: Homo sapiens; NCI-H23, 10^–5 M; read-out: GI (%)
Source text: as §1

TK-10 = conditions: Homo sapiens; TK-10, 10^–5 M; read-out: GI (%)
Source text: as §1

UACC-62 = conditions: Homo sapiens; UACC-62, 10^–5 M; read-out: GI (%)
Source text: as §1

A549/ATCC = conditions: Homo sapiens, 10^–5 M, read-out: GI (%)
Source text: as §1

HS 578T = conditions: Homo sapiens, 10^–5 M, read-out: GI (%)
Source text: as §1

CCRF-CEM = conditions: Homo sapiens, 10^–5 M, read-out: GI (%)
Source text: as §1

786-0 = conditions: Homo sapiens; 786-0, 10^–5 M; read-out: GI (%)
Source text: as §1

HCT-116 = conditions: Homo sapiens; HCT-116, 10^–5 M; read-out: GI (%)
Source text: as §1

NCI-H322M = conditions: Homo sapiens, 10^–5 M, read-out: GI (%)
Source text: as §1

HT-29 = conditions: Homo sapiens; HT-29, 10^–5 M; read-out: GI (%)
Source text: as §1

HL-60(TB) = conditions: Homo sapiens, 10^–5 M, read-out: GI (%)
Source text: as §1

UACC-257 = conditions: Homo sapiens; UACC-257, 10^–5 M; read-out: GI (%)
Source text: as §1

OVCAR-3 = conditions: Homo sapiens; OVCAR-3, 10^–5 M; read-out: GI (%)
Source text: as §1

SW-620 = conditions: Homo sapiens; SW-620, 10^–5 M; read-out: GI (%)
Source text: as §1

NCI/ADR-RES = conditions: Homo sapiens, 10^–5 M, read-out: GI (%)
Source text: as §1

SF-268 = conditions: Homo sapiens; SF-268, 10^–5 M; read-out: GI (%)
Source text: as §1

MOLT-4 = conditions: Homo sapiens; MOLT-4, 10^–5 M; read-out: GI (%)
Source text: as §1

SR = conditions: Homo sapiens, 10^–5 M, read-out: GI (%)
Source text: as §1

LOX IMVI = conditions: Homo sapiens, 10^–5 M, read-out: GI (%)
Source text: as §1

SF-539 = conditions: Homo sapiens; SF-539, 10^–5 M; read-out: GI (%)
Source text: as §1

MCF7 = conditions: Homo sapiens; MCF7, 10^–5 M; read-out: GI (%)
Source text: as §1

SK-OV-3 = conditions: Homo sapiens; SK-OV-3, 10^–5 M; read-out: GI (%)
Source text: as §1

DU-145 = conditions: Homo sapiens; DU-145, 10^–5 M; read-out: GI (%)
Source text: as §1

K-562 = conditions: Homo sapiens, K562; K-562, 10^–5 M; read-out: GI (%)
Source text: as §1

SNB-75 = conditions: Homo sapiens; SNB-75, 10^–5 M; read-out: GI (%)
Source text: as §1

RPMI-8226 = conditions: Homo sapiens; RPMI-8226, 10^–5 M; read-out: GI (%)
Source text: as §1

MALME-3M = conditions: Homo sapiens, 10^–5 M, read-out: GI (%)
Source text: as §1

HCT-15 = conditions: Homo sapiens; HCT-15, 10^–5 M; read-out: GI (%)
Source text: as §1

IGROV1 = conditions: Homo sapiens, IGROV-1; IGROV1, 10^–5 M; read-out: GI (%)
Source text: as §1

NCI-H522 = conditions: Homo sapiens; NCI-H522, 10^–5 M; read-out: GI (%)
Source text: as §1

M14 = conditions: Homo sapiens; M14, 10^–5 M; read-out: GI (%)
Source text: as §1

MDA-MB-231/ATCC = conditions: Homo sapiens, 10^–5 M, read-out: GI (%)
Source text: as §1

HOP-92 = conditions: Homo sapiens; HOP-92, 10^–5 M; read-out: GI (%)
Source text: as §1

ACHN = conditions: Homo sapiens, 10^–5 M, read-out: GI (%)
Source text: as §1

SK-MEL-28 = conditions: Homo sapiens; SK-MEL-28, 10^–5 M; read-out: GI (%)
Source text: as §1

SMILES | inhibition at 10 µM (OVCAR-4) | inhibition at 10 µM (SK-MEL-2) | inhibition at 10 µM (NCI-H460) | inhibition at 10 µM (T-47D) | inhibition at 10 µM (NCI-H23) | inhibition at 10 µM (TK-10) | inhibition at 10 µM (UACC-62) | inhibition at 10 µM (A549/ATCC) | inhibition at 10 µM (HS 578T) | inhibition at 10 µM (CCRF-CEM) | inhibition at 10 µM (786-0) | inhibition at 10 µM (HCT-116) | inhibition at 10 µM (NCI-H322M) | inhibition at 10 µM (HT-29) | inhibition at 10 µM (HL-60(TB)) | inhibition at 10 µM (UACC-257) | inhibition at 10 µM (OVCAR-3) | inhibition at 10 µM (SW-620) | inhibition at 10 µM (NCI/ADR-RES) | inhibition at 10 µM (SF-268) | further results
O=C1C(Nc2ccc(I)cc2)=CC(c2ccccc2)N1c1ccc(I)cc1 (stereo not drawn) [3a] | 20% | 26% | 1% | 34% | 6% | 12% | 0% | 5% | 71% | 4% | 17% | 14% | 17% | 0% | 0% | 13% | 1% | 0% | 0% | 16% | inhibition at 10 µM (MOLT-4): 2%; inhibition at 10 µM (SR): 44%; inhibition at 10 µM (LOX IMVI): 18%; inhibition at 10 µM (SF-539): 12%; inhibition at 10 µM (MCF7): 44%; inhibition at 10 µM (SK-OV-3): 8%; inhibition at 10 µM (DU-145): 0%; inhibition at 10 µM (K-562): 0%; inhibition at 10 µM (SNB-75): 15%; inhibition at 10 µM (RPMI-8226): 100%; inhibition at 10 µM (MALME-3M): 0%; inhibition at 10 µM (HCT-15): 19%; inhibition at 10 µM (IGROV1): 16%; inhibition at 10 µM (NCI-H522): 50%; inhibition at 10 µM (M14): 0%; inhibition at 10 µM (MDA-MB-231/ATCC): 0%; inhibition at 10 µM (HOP-92): 0%; inhibition at 10 µM (ACHN): 13%; inhibition at 10 µM (SK-MEL-28): 2%
O=C1C(Nc2ccc(I)cc2)=CC(c2ccc(F)cc2)N1c1ccc(I)cc1 (stereo not drawn) [3b] | 38% | 31% | 17% | 32% | 8% | 27% | 0% | 13% | 90% | 74% | 27% | 21% | 10% | 16% | 35% | 8% | 9% | 24% | 9% | 68% | inhibition at 10 µM (MOLT-4): 66%; inhibition at 10 µM (SR): 92%; inhibition at 10 µM (LOX IMVI): 0%; inhibition at 10 µM (SF-539): 51%; inhibition at 10 µM (MCF7): 56%; inhibition at 10 µM (SK-OV-3): 12%; inhibition at 10 µM (DU-145): 9%; inhibition at 10 µM (K-562): 5%; inhibition at 10 µM (SNB-75): 100%; inhibition at 10 µM (RPMI-8226): 35%; inhibition at 10 µM (MALME-3M): 6%; inhibition at 10 µM (HCT-15): 9%; inhibition at 10 µM (IGROV1): 7%; inhibition at 10 µM (NCI-H522): 26%; inhibition at 10 µM (M14): 4%; inhibition at 10 µM (MDA-MB-231/ATCC): 6%; inhibition at 10 µM (HOP-92): 36%; inhibition at 10 µM (ACHN): 35%; inhibition at 10 µM (SK-MEL-28): 8%
